Experimental data as given in patent US4294833A, “Substituted 4-hydroxy-isophthalic acid picolylamides having a pharmaceutical activity in thromboembolic disorders” (Societa Italo-Britannica, priority 1977, dated 1981).

What was measured:
[1] = system: platelet aggregation induced by ADP; experiment: Platelet aggregation inhibitory activity in vivo (Born aggregometer), ADP-induced; parameters: species or system New Zealand rabbits; conditions: Oryctolagus cuniculus, Platelet, ip, dose for 50% inhibition of ADP-induced aggregation curve; rabbits, intraperitoneal, blood 2, 4 and 6 hours after injection; read-out: platelet antiaggregant activity (AAP), DI50, ADP
Procedure: (§1) Determination of the platelet aggregation inhibitory activity in vivo
(§2) The activity of the above described compounds as platelet antiaggregant was tested in vivo on rabbits, by the Born aggregometer. The inhibition of the aggregation curve induced by ADP and thrombin was assessed with different drug concentrations according to the platelet reactivity. New Zealand rabbits which had been held fasting for 12 hours with water ad libitum, were anaesthetized with Nembutal in a dose of 35 mg/kg intramuscolarly. The blood was withdrawn from the carotidal arthery, before (control) and 2, 4, and 6 hours after the intraperitoneal injection of the compounds under examination (at the dose indicated below). The blood samples were taken up in a 3.8% aqueous solution of sodium citrate in a ratio 10:1 and thereupon centrifuged at 1500 r.p.m. for 10 minutes, for obtaining a PRP (platelet rich plasma). A portion of such a plasma was thereupon centrifuged at 8000 r.p.m. for 10 minutes, for obtaining a PPP (platelet lean plasma) which was used for zeroing the measuring apparatus.
(§3) From the results of said experiments, there was determined the dose of each product in mg/kg body weight able to induce a 50% inhibition of the aggregation curve (DI50) after treatment, referred to the curve obtained by the same control plasma before treatment.
(§4) In tables I and II are further indicated for each compound the method of preparation; the melting point PF in °C; the platelet antiaggregant activity (AAP) expressed in terms of DI50 in mg/kg, referred to ADP and thrombin respectively; the antithrombin activity (AT) in %; the anticoagulant activity (AC) in %; the fibrinolytic activity (FL) in %; the acute toxicity (LD50) in mice, intraperitoneally, in mg/kg, as previously defined.

[2] = system: platelet aggregation induced by thrombin; experiment: Platelet aggregation inhibitory activity in vivo (Born aggregometer), thrombin-induced; parameters: species or system New Zealand rabbits; conditions: Oryctolagus cuniculus, Platelet, ip, dose for 50% inhibition of thrombin-induced aggregation curve; rabbits, intraperitoneal, blood 2, 4 and 6 hours after injection; read-out: platelet antiaggregant activity (AAP), DI50, Thrombin
Procedure: as §1, §2, §3, §4

[3] = system: thrombin-induced coagulation of platelet rich plasma; experiment: Antithrombin activity on PRP, Hartert's thromboelastograph; format: in vivo, New Zealand rabbits; conditions: Oryctolagus cuniculus, Platelet, ip, percent decrease of index ma/[r+k] vs before treatment; 20 mg/kg intraperitoneal, rabbits
Procedure: Determination of the antithrombin activity
The antithrombin activity on the PRP (platelet rich plasma) obtained following the above described method was assessed by Hartert's thromboelastograph (Hellige model). The coagulation was induced by adding to 0.25 ml of plasma 0.06 ml of a thrombin solution (Roche Topostasin® per os) at 60 units*, pH 7.4**. The antithrombin activity was assessed in terms of a percent decrease of the index (ma/[r+k]) which was calculated from the thromboelastograph diagram, wherein r is the reaction time, k is the speed of the coagulum formation and ma is the maximum spread of the tong, after an intraperitoneal treatment with a dose of 20 mg/kg of each compound under examination, referred to the same index obtained before the treatment (control).
as §4

[4] = system: CaCl2-induced plasma coagulation; experiment: Anticoagulant activity on PRP, Hartert's thromboelastograph; format: in vivo, New Zealand rabbits; conditions: Oryctolagus cuniculus, ip, percent increase of total time for coagulum formation (r+k) vs before treatment; 25 mg/kg intraperitoneal, rabbits; read-out: anticoagulant activity (AC)
Procedure: Determination of the anticoagulant activity
The anticoagulant activity was also assessed on PRP of animals treated as described in the preceding methods, by using again Hartert's thromboelastograph method.
The plasma coagulation was induced by adding to 0.25 ml PRP a 1.29% solution of CaCl2.
The anticoagulant effect was determined as a percent increase of the total time for the coagulum formation (the index r+k can be obtained from the thromboelastograph diagram) in a plasma after treatment, referred to the same index obtained before the treatment (control). Again the dose level was 25 mg/kg for each compound under examination, intraperitoneally.
as §4

blood coagulum = experiment: Fibrinolytic activity, Fearnley method (lysis of blood coagulum in toto); format: in vivo; conditions: Oryctolagus cuniculus, ip, 0.5 h, percent decrease of coagulum weight after 30 minutes at 37° C.; 25 mg/kg intraperitoneal, rabbits; read-out: fibrinolytic activity (FL)
Procedure: Determination of the fibrinolytic activity
The determination of the fibrinolytic activity was made following the Fearnley method for the lysis of the blood coagulum in toto.
0.2 ml of blood were withdrawn from the marginal vein of the ear of rabbits treated in the same way as the previously described tests, before and after an intraperitoneal injection of the compounds under test at a dose level of 25 mg/kg for each compound.
The blood samples were placed in test tubes containing 1.7 ml of phosphate buffer at pH 7.4 and 0.1 ml of thrombin (Roche Topostasin ® per os) at 50 units NIH/ml, and maintained in an ice bath. The test tubes were maintained at said temperature for 30 minutes and thereupon were transferred to a temperature controlled water bath at 37° C.
The fibrinolytic activity was determined as a percent decrease of the coagulum weight, measured after incubation for 30 minutes at 37° C.
as §4

[5] = Acute toxicity, intraperitoneal; conditions: mouse, in vivo, ip, male Swiss mice, intraperitoneal, 7 days observation; preliminary, by graphic interpolation; read-out: acute toxicity (LD50 / DL50)
Procedure: The acute toxicity limit was determined intraperitoneally on male Swiss mice, weighing 20±2 g, held fasting for 18 hours with water ad libitum.
The animals were maintained under observation for 7 days of treatment, by examining the general symptomatology and noting the death sequency. The preliminary DL50 in mg/kg body weight was calculated by graphic interpolation of the results as obtained.
as §4

Row | Compound | ED50 [1] [mg/kg] | ED50 [2] [mg/kg] | inhibition in vivo at 20 mg/kg [3] [%] | change in vivo at 25 mg/kg [4] [%] | fibrinolytic activity (percent decrease of coagulum weight) at 25 mg/kg (blood coagulum) [%] | LD50 at 168 h [5] [mg/kg]
1 | C=C(C)COc1ccc(C(=O)N(Cc2cccnc2)C(C)C)cc1C(=O)N(Cc1cccnc1)C(C)C [Example 56] | 29.1 | 21.4 | 47.3 | 18.6 | 38.1 | 352
2 | CC=COc1c(Cl)cc(C(=O)N(CCC(C)C)Cc2cccnc2)cc1C(=O)N(CCC(C)C)Cc1cccnc1 [Example 49] | 49 | 30.2 | 27.9 | 15.3 | 21.7 | 193
3 | COc1cc(C(=O)NCc2cccnc2)cc(C(=O)NCc2cccnc2)c1O [Example 33] | 58.4 | 38.9 | 20.3 | 11.2 | 15.5 | 570
4 | CC(C)Oc1ccc(C(=O)NCc2ccncc2)cc1C(=O)NCc1ccncc1 [Example 62] | 46.8 | 32.3 | 26.5 | 12 | 21.7 | 618
5 | COc1cc(C(=O)NCc2cccnc2)cc(C(=O)NCc2cccnc2)c1OC1CC1 [Example 18] | 29.4 | 22 | 33.4 | 20.1 | 28.6 | 228
6 | CC(C)=COc1ccc(C(=O)NCc2ccncc2)cc1C(=O)NCc1ccncc1 [Example 65] | 36.7 | 24.5 | 34.2 | 23.8 | 26.5 | 240
7 | C=C(C)COc1ccc(C(=O)N(CCC)Cc2ccncc2)cc1C(=O)N(CCC)Cc1ccncc1 [Example 70] | 30.6 | 20.8 | 48.2 | 18.9 | 39.3 | 360
8 | CC(C)CCOc1ccc(C(=O)NCc2cccnc2)cc1C(=O)NCc1cccnc1 [Example 13] | 48.3 | 27.1 | 28.5 | 24.5 | 21.9 | 173
9 | CC=CCOc1ccc(C(=O)N(C)Cc2ccncc2)cc1C(=O)N(C)Cc1ccncc1 [Example 69] | 26.1 | 19.3 | 48.7 | 14.2 | 41.6 | 210
10 | O=C(NCc1cccnc1)c1cc(C(=O)NCc2cccnc2)c(O)c([N+](=O)[O-])c1 [Example 31] | 36.6 | 27 | 23.1 | 13.6 | 20.5 | 345
11 | CCCCCOc1c(Cl)cc(C(=O)NCc2cccnc2)cc1C(=O)NCc1cccnc1 [Example 24] | 41.3 | 35.6 | 24.4 | 16 | 6.4 | 371
12 | C=CC(C)Oc1ccc(C(=O)NCc2ccncc2)cc1C(=O)NCc1ccncc1 (stereo not drawn) [Example 64] | 35.1 | 24 | 45.9 | 19.2 | 33.6 | 360
13 | C=CCOc1c(C(=O)NCc2cccnc2)cc(C(=O)NCc2cccnc2)cc1[N+](=O)[O-] [Example 36] | 36.3 | 27.1 | 23 | 11.9 | 19.1 | 267
14 | CCN(Cc1cccnc1)C(=O)c1ccc(OC)c(C(=O)N(CC)Cc2cccnc2)c1 [Example 40] | 60.2 | 42.3 | 28.9 | 13.4 | 20.6 | 605
15 | C=CC(C)Oc1ccc(C(=O)NCc2cccnc2)cc1C(=O)NCc1cccnc1 (stereo not drawn) [Example 54] | 32.3 | 21.2 | 46.3 | 18.7 | 35.2 | 355
16 | COc1cc(C(=O)NCc2cccnc2)cc(C(=O)NCc2cccnc2)c1OC1CCCC1 [Example 20] | 35.6 | 21.4 | 32.6 | 12.9 | 27.9 | 375
17 | CCC(CC)Oc1c(Cl)cc(C(=O)NCc2cccnc2)cc1C(=O)NCc1cccnc1 [Example 30] | 42.2 | 29.5 | 27.9 | 22.3 | 25.8 | 198
18 | C=CCOc1ccc(C(=O)NCc2ccncc2)cc1C(=O)NCc1ccncc1 [Example 61] | 28.6 | 19.5 | 52.8 | 15.6 | 45 | 392
19 | CCOc1ccc(C(=O)N(CCCC(C)C)Cc2cccnc2)cc1C(=O)N(CCCC(C)C)Cc1cccnc1 [Example 46] | 34.3 | 24.7 | 32.7 | 15.5 | 29.1 | 451
20 | COc1cc(C(=O)NCc2cccnc2)cc(C(=O)NCc2cccnc2)c1OC1CCCCC1 [Example 21] | 35.8 | 24.5 | 32.5 | 12.5 | 28.3 | 378
21 | C=C(C)Oc1c(Cl)cc(C(=O)N(C)Cc2ccncc2)cc1C(=O)N(C)Cc1ccncc1 [Example 68] | 47.5 | 30 | 35.2 | 15.5 | 30 | 255
